Measurements published in patent US20080139458A1, “Methods of Treatment For Injured or Diseased Joints” (priority 2004, published 2008).

Experiments:
[1] = system: bovine synovial fluid (BSF); test: In vitro friction assay of protease-treated bovine synovial fluid; type: biochemical; conditions: enzymes 0.5 U/mL, BSF = no enzyme, latex:glass bearing
Description: (§1) Human lubricin was purified from pooled SF aspirates of patients undergoing total knee replacement as described previously (Jay et al., Gluconj. J. 18:807-815, 2001). BSF was aspirated percutaneously from the lateral aspect of radiocarpal joints of freshly slaughtered cattle with sterile 18 gauge needles after cleansing the skin with alcohol swabs. The cattle were 1 year old and of both sexes (PelFreeze Corp., Little Rock, Ark.). The BSF was centrifuged at 20,000 g at 4° C. to remove cell debris and the BSF was stored at −20° C. Aliquots of purified human lubricin (1 mL, 250 μg/1 mL), and BSF (1 mL) were subjected to protease treatments with CB, NE, α-chymotrypsin, or trypsin. These enzymes were utilized as follows: 1) 0.5 U/mL of CB (Sigma-Aldrich, Saint Louis, Mo., one unit liberates 1 nanomole of 7-amino-4-methylcoumarin from Z-Arg-Arg 7-amido-4-methylcoumarin per min at pH 6.0 at 40° C.) reconstituted in 0.25 M Na acetate buffer, pH 5.5; 2) 0.5 U/mL NE (Sigma-Aldrich, one unit is defined as the release of 1 mole of p-nitrophenol per sec at 37° C.) reconstituted in 100 mM Tris-HCl, 100 mM CaCl2, pH 8.8; 3) 0.5 U/mL of TPCK-treated trypsin (Sigma-Aldrich, one unit causes a change in A253 of 0.001 per min at pH 7.6 at 25° C. using BAEE as a substrate) reconstituted in 50 mM Tris HCl, 20 mM CaCl2, pH 8.0; and 4) 0.5 U/mL of α-chymotrypsin (Sigma-Aldrich, one unit hydrolyzes 1.0 μmole of BTEE per min at pH 7.8 at 25° C.) reconstituted in 80 mM Tris-HCl, 100 mM CaCl2, pH 7.8.
(§2) Aliquots of digested human lubricin and BSF (200 μL) were removed after 2, 4, 6, 12, and 24 hours and the reaction was stopped by adding E-64 (L-trans-epoxysuccinyl-leucyl-amido-(4-guanidino)-butane, Sigma-Aldrich) to a final concentration of 100 μM (CB) or phenylmethanesulfonyl fluoride (PMSF, Sigma-Aldrich) to a final concentration of 1 mM (NE).
(§3) The boundary lubricating abilities of protease-treated human lubricin and BSF were measured using a friction apparatus as reported by Davis et al., J. Biomech. Eng. 101:185-192, 1979. Lubricant (200 μL) was applied between a bearing of latex and a ring of polished glass with a contact area of 1.59 cm^2. The latex was oscillated, under a pressure of 0.35×10^6 N/m^2, against the polished glass with an entraining velocity of 0.37 mm/sec. The bearing system was axially loaded within a gimbals system free to rotate around two perpendicular horizontal axes. The friction apparatus recorded displacements of the gimbals system around the vertical loading axis through a linear displacement voltage transducer, where the output was directly proportional to the frictional torque (F). A bearing load of 70 newtons (N) was related to the coefficient of friction (μ) via Amonton's law, F=μN.
(§4) The μ of the lubricant was recorded at room temperature and was preceded by a baseline measurement of μ with normal saline (NS). Lubrication was manifested by a reduction in μ by the lubricant relative to that of NS. Negative Δμ (−Δμ) values indicate lubrication whereas positive Δμ (+Δμ) indicate friction. Addition of 200 μL of lubricant was followed by bringing the bearing surfaces close enough so that the solution wet both surfaces. After 5 min for equilibration, the latex-coated bearing was brought to rest on the glass as it was oscillating. Voltage measurements were recorded at 1, 3, and 5 min. After 5 min, the surfaces were separated for 2 min and then brought back together for three additional 5 min session. The 3 and 5 min μ values of the last two 5 min session were recorded and averaged, and data were later combined with another duplicate experiment providing 8 distinct measurements of μ.

excised murine joints = test: Ex vivo friction coefficient of excised murine joints after intra-articular protease (modified Stanton pendulum); parameters: species or system murine (Svev129 mice); conditions: for Friction coefficient μ ± S.D.: n = 4; for average increase in μ: after vs before intra-articular injection of 0.05 U, 2 hours at room temperature
Description: Murine joint friction measurements were performed ex vivo in a modified Stanton pendulum configuration (Chamely, New Scientist 6:60, 1959) illustrated in FIG. 2. Excised murine joints, from 8 week old Svev129 mice, weighing approximately 20 grams (Taconic, Germantown, N.Y.), were stripped of supporting connective tissue and musculature, while the synovium was left undisturbed. The femur and tibia were severed mid-length and covered with connecting plexiglass tubing. The center of the joint served as the axis of rotation of a 1 Hz pendulum. The joints were loaded with 20 grams and allowed to oscillate. The pendulum was set in motion at an angle of 30° off the perpendicular axis. The pendulum motion was videotaped and post-hoc analysis was performed to establish baseline μ. The deceleration of the pendulum, a=dv/dt, was used to calculate μ. Velocity (v) was calculated from the equation: v=(2 gh)^1/2 where h is the height from where the pendulum reached apogee to the point of maximum velocity at a=0. The μ of murine joint was calculated to be equal a/g. Presently, this calculation neglects aerodynamic drag and assumes g equals 9.81 m/s^2. A 5 μL protease solution containing 0.05 U of CB, NE, α-chymotrypsin, or trypsin was delivered intra-articularly. The limbs were treated at room temperature for 2 hours and the limbs were subsequently allowed to oscillate to estimate μ following treatment with the protease.

purified human lubricin [2] = test: Western blot of protease-treated purified human lubricin (PNA-peroxidase and pAb J108); type: biochemical
Description: as §1, with “7.8. […]” for “7.8.”
Probing was performed using pAb J108, which recognizes an epitope; […], encoded by exon 3 within the amino-terminus of human lubricin/SZP and present in all alternatively spliced isoforms (Jay et al., J. Orthop. Res. 19:677-687, 2001). […] Immunopositive bands were detected in a darkroom on BioMax film (Kodak, Rochester, N.Y.). […]

purified human lubricin [3] = test: In vitro friction assay of protease-treated purified human lubricin; type: biochemical; conditions: enzymes 0.5 U/mL, Lubricin = no enzyme, latex:glass bearing
Description: as §1, §2, §3, §4

[4] = After intra-articular injection of 5 μl containing 0.05 U, 2 hour treatment at room temperature
[5] = Before intra-articular injection (baseline)

Row | Molecule | Change in coefficient of friction Δμ ± S.D. ([1]; 0 hrs) | Change in coefficient of friction Δμ ± S.D. ([1]; 2 hrs) | Change in coefficient of friction Δμ ± S.D. ([1]; 4 hrs) | Change in coefficient of friction Δμ ± S.D. ([1]; 6 hrs) | Change in coefficient of friction Δμ ± S.D. ([1]; 12 hrs) | Change in coefficient of friction Δμ ± S.D. ([1]; 24 hrs) | Friction coefficient μ ± S.D. (excised murine joints; [4]) | Friction coefficient μ ± S.D. (excised murine joints; [5]) | average increase in μ (excised murine joints) [%] | Degradation of lubricin (band intensities) (purified human lubricin [2]; 0.5 U/mL, 2, 4, 6, 12, and 24 hours post-treatment) | pAb J108 immunoreactive bands (purified human lubricin [2]; following NE treatment for 2 hours at 37° C.) | Change in coefficient of friction Δμ ± S.D. (purified human lubricin [3]; 0 hrs) | Change in coefficient of friction Δμ ± S.D. (purified human lubricin [3]; 2 hrs) | Change in coefficient of friction Δμ ± S.D. (purified human lubricin [3]; 4 hrs) | Change in coefficient of friction Δμ ± S.D. (purified human lubricin [3]; 6 hrs) | Change in coefficient of friction Δμ ± S.D. (purified human lubricin [3]; 12 hrs) | Change in coefficient of friction Δμ ± S.D. (purified human lubricin [3]; 24 hrs) | PNA and J108 reactivity of lubricin (purified human lubricin [2]; after 2 hours of treatment (data not shown))
1 | Neutrophil Elastase: protease (Sigma-Aldrich) used to treat lubricin, BSF and murine joints | −0.061 ± 0.005 | −0.039 ± 0.001 | 0.007 ± 0.001 | 0.009 ± 0.001 | 0.010 ± 0.001 | 0.013 ± 0.002 | 0.0028 ± 0.0008 | 0.0022 ± 0.0005 | 27.3 | time-dependent degradation of lubricin | no pAb J108 immunoreactive bands were detected | −0.068 ± 0.005 | −0.038 ± 0.005 | −0.019 ± 0.004 | 0.004 ± 0.001 | 0.015 ± 0.003 | 0.054 ± 0.006 | –
2 | Trypsin: TPCK-treated trypsin (Sigma-Aldrich) used to treat lubricin, BSF and murine joints (protein, UniProt P00760 24-246, looked up, TPCK-treated, TPCK-treated trypsin (Sigma-Aldrich) used to treat lubricin, BSF and murine joints) Serine protease 1: IVGGYTCGANTVPYQVSLNSGYHFCGGSLINSQWVVSAAHCYKSGIQVRLGEDNINVVEGNEQFISASKSIVHPSYNSNTLNNDIMLIKLKSAASLNSRVASISLPTSCASAGTQCLISGWGNTKSSGTSYPDVLKCLKAPILSDSSCKSAYPGQITSNMFCAGYLEGGKDSCQGDSGGPVVCSGKLQGIVSWGSGCAQKNKPGVYTKVCNYVSWIKQTIASN | −0.061 ± 0.005 | −0.031 ± 0.005 | −0.015 ± 0.002 | 0.005 ± 0.001 | 0.009 ± 0.003 | 0.012 ± 0.004 | 0.0034 ± 0.0003 | 0.0018 ± 0.0001 | 88.9 | – | – | −0.068 ± 0.005 | 0.025 ± 0.006 | 0.032 ± 0.005 | 0.038 ± 0.001 | 0.046 ± 0.005 | 0.049 ± 0.005 | complete loss of PNA and J108 reactivity
